ChEMBL document CHEMBL3885861, “Open TG-GATES”

Organism: Rattus norvegicus
Experiment: Open TG-GATES - Regimen: Single
Assay type: toxicity, organism-based, Sprague-Dawley
Parameters: regimen Single, gender Male, age 6 weeks
Details: in vivo, po, route gavage; for APTT / Bas / Eos / Fbg / Hb / Ht / Lym / MCHC / MCV / Mono / Neu / PT / Plat / RBC / Ret / WBC: tissue Blood; for KIDNEY_L / KIDNEY_R / KIDNEY_TOTAL: tissue Kidney; for LIVER: tissue Liver; for ALP / ALT / AST / BUN / CRE / Ca / Cl / DBIL / GLC / IP / K / LDH / Na / PL / RALB / TBIL / TC / TG / TP / gamma-GTP: tissue Plasma
[1] = 0 mg/kg, 3 h, dose level Control
[2] = 0 mg/kg, 6 h, dose level Control
[3] = 0 mg/kg, 9 h, dose level Control
[4] = 0 mg/kg, 24 h, dose level Control

## C1CCC(C(CC2CCCCN2)C2CCCCC2)CC1 (stereo not drawn) [PERHEXILINE]
[1]
  TERMINAL_BW: 206.4 g
  APTT: 21.3 s
  Bas: 0%
  Eos: 0.6%
  Fbg: 324 mg/dL
  Hb: 13.5 g/dL
  Ht: 39.5%
  Lym: 80.6%
  MCHC: 34%
  MCV: 62.3 fL
  Mono: 1.4%
  Neu: 16.8%
  PT: 16 s
  Plat: 117.8 x10_4/uL
  RBC: 634.6 x10_4/ul
  Ret: 6.3%
  WBC: 77.4 x10_2/uL
  KIDNEY_L: 0.9 g
  KIDNEY_R: 0.9 g
  KIDNEY_TOTAL: 1.8 g
  LIVER: 9.2 g
  ALP: 1964.4 IU/L
  ALT: 42.6 IU/L
  AST: 70.8 IU/L
  BUN: 14.8 mg/dL
  CRE: 0.1 mg/dL
  Ca: 10.9 mg/dL
  Cl: 106.8 meq/L
  DBIL: 0.002 mg/dL
  GLC: 192.6 mg/dL
  IP: 7.8 mg/dL
  K: 4.2 meq/L
  LDH: 147.6 IU/L
  Na: 140.4 meq/L
  PL: 144.4 mg/dL
  RALB: 3.2 g/dL
  TBIL: 0.014 mg/dL
  TC: 79.8 mg/dL
  TG: 63.4 mg/dL
  TP: 5.7 g/dL
  gamma-GTP: 0.8 IU/L
[2]
  TERMINAL_BW: 210.1 g
  APTT: 20.9 s
  Bas: 0%
  Eos: 0.4%
  Fbg: 317.4 mg/dL
  Hb: 13.2 g/dL
  Ht: 39.3%
  Lym: 79.8%
  MCHC: 33.6%
  MCV: 65.6 fL
  Mono: 2.2%
  Neu: 16.6%
  PT: 15.7 s
  Plat: 130.2 x10_4/uL
  RBC: 599.8 x10_4/ul
  Ret: 7.4%
  WBC: 75.5 x10_2/uL
  KIDNEY_L: 1 g
  KIDNEY_R: 1 g
  KIDNEY_TOTAL: 1.9 g
  LIVER: 9.3 g
  ALP: 1510 IU/L
  ALT: 37.8 IU/L
  AST: 67.8 IU/L
  BUN: 11.4 mg/dL
  CRE: 0.1 mg/dL
  Ca: 10.8 mg/dL
  Cl: 105.2 meq/L
  DBIL: 0 mg/dL
  GLC: 178.8 mg/dL
  IP: 9.8 mg/dL
  K: 4 meq/L
  LDH: 239.2 IU/L
  Na: 140.4 meq/L
  PL: 147.8 mg/dL
  RALB: 3 g/dL
  TBIL: 0.018 mg/dL
  TC: 81.2 mg/dL
  TG: 77.4 mg/dL
  TP: 5.6 g/dL
  gamma-GTP: 1 IU/L
[3]
  TERMINAL_BW: 206.4 g
  APTT: 21.8 s
  Bas: 0%
  Eos: 0.6%
  Fbg: 319 mg/dL
  Hb: 13.2 g/dL
  Ht: 39.2%
  Lym: 75.8%
  MCHC: 33.7%
  MCV: 64.6 fL
  Mono: 1.8%
  Neu: 20.4%
  PT: 15.6 s
  Plat: 131 x10_4/uL
  RBC: 606.6 x10_4/ul
  Ret: 7.3%
  WBC: 89.6 x10_2/uL
  KIDNEY_L: 0.9 g
  KIDNEY_R: 1 g
  KIDNEY_TOTAL: 1.9 g
  LIVER: 9.2 g
  ALP: 1422.6 IU/L
  ALT: 33.8 IU/L
  AST: 62.2 IU/L
  BUN: 11.4 mg/dL
  CRE: 0.1 mg/dL
  Ca: 10.9 mg/dL
  Cl: 105.6 meq/L
  DBIL: 0 mg/dL
  GLC: 193.8 mg/dL
  IP: 9.4 mg/dL
  K: 3.9 meq/L
  LDH: 196.4 IU/L
  Na: 139.6 meq/L
  PL: 135.6 mg/dL
  RALB: 3 g/dL
  TBIL: 0.012 mg/dL
  TC: 76.4 mg/dL
  TG: 70 mg/dL
  TP: 5.6 g/dL
  gamma-GTP: 0.8 IU/L
[4]
  TERMINAL_BW: 228.6 g
  APTT: 20.7 s
  Bas: 0%
  Eos: 0.8%
  Fbg: 315.6 mg/dL
  Hb: 13.1 g/dL
  Ht: 39.4%
  Lym: 74.8%
  MCHC: 33.3%
  MCV: 65.2 fL
  Mono: 2.4%
  Neu: 21.2%
  PT: 16 s
  Plat: 120.5 x10_4/uL
  RBC: 604.2 x10_4/ul
  Ret: 7.2%
  WBC: 89.3 x10_2/uL
  KIDNEY_L: 1 g
  KIDNEY_R: 1 g
  KIDNEY_TOTAL: 2.1 g
  LIVER: 11.2 g
  ALP: 1688.8 IU/L
  ALT: 42.6 IU/L
  AST: 66.4 IU/L
  BUN: 16.8 mg/dL
  CRE: 0.1 mg/dL
  Ca: 11 mg/dL
  Cl: 105.4 meq/L
  DBIL: 0 mg/dL
  GLC: 196.6 mg/dL
  IP: 7.1 mg/dL
  K: 4.3 meq/L
  LDH: 177.6 IU/L
  Na: 141.6 meq/L
  PL: 154.2 mg/dL
  RALB: 3.2 g/dL
  TBIL: 0.014 mg/dL
  TC: 76.8 mg/dL
  TG: 149.4 mg/dL
  TP: 5.7 g/dL
  gamma-GTP: 1 IU/L
15 mg/kg, 3 h, dose level Low
  TERMINAL_BW: 217 g
  APTT: 20.2 s
  Bas: 0%
  Eos: 0.6%
  Fbg: 331 mg/dL
  Hb: 13.3 g/dL
  Ht: 39.6%
  Lym: 79.8%
  MCHC: 33.5%
  MCV: 63.8 fL
  Mono: 1.8%
  Neu: 16.8%
  PT: 15.6 s
  Plat: 121.9 x10_4/uL
  RBC: 620.8 x10_4/ul
  Ret: 7.8%
  WBC: 62.3 x10_2/uL
  KIDNEY_L: 1 g
  KIDNEY_R: 1 g
  KIDNEY_TOTAL: 1.9 g
  LIVER: 10.1 g
  ALP: 1601.6 IU/L
  ALT: 47 IU/L
  AST: 74 IU/L
  BUN: 13 mg/dL
  CRE: 0.1 mg/dL
  Ca: 11 mg/dL
  Cl: 105.6 meq/L
  DBIL: 0.002 mg/dL
  GLC: 181.2 mg/dL
  IP: 8.6 mg/dL
  K: 4 meq/L
  LDH: 183.8 IU/L
  Na: 140.8 meq/L
  PL: 149.4 mg/dL
  RALB: 3.2 g/dL
  TBIL: 0.022 mg/dL
  TC: 81.2 mg/dL
  TG: 90.2 mg/dL
  TP: 5.7 g/dL
  gamma-GTP: 0.6 IU/L
15 mg/kg, 6 h, dose level Low
  TERMINAL_BW: 212 g
  APTT: 20.7 s
  Bas: 0%
  Eos: 0.8%
  Fbg: 320.2 mg/dL
  Hb: 13.1 g/dL
  Ht: 39.6%
  Lym: 79.6%
  MCHC: 33.1%
  MCV: 64.4 fL
  Mono: 2%
  Neu: 16.4%
  PT: 15.6 s
  Plat: 134.6 x10_4/uL
  RBC: 615.4 x10_4/ul
  Ret: 7.9%
  WBC: 77.4 x10_2/uL
  KIDNEY_L: 1 g
  KIDNEY_R: 1 g
  KIDNEY_TOTAL: 2 g
  LIVER: 9.5 g
  ALP: 1590.2 IU/L
  ALT: 39 IU/L
  AST: 70 IU/L
  BUN: 10.6 mg/dL
  CRE: 0.1 mg/dL
  Ca: 10.9 mg/dL
  Cl: 105.8 meq/L
  DBIL: 0 mg/dL
  GLC: 170.4 mg/dL
  IP: 9.5 mg/dL
  K: 4.4 meq/L
  LDH: 209.6 IU/L
  Na: 139.2 meq/L
  PL: 134.6 mg/dL
  RALB: 3.1 g/dL
  TBIL: 0.018 mg/dL
  TC: 77.2 mg/dL
  TG: 73.6 mg/dL
  TP: 5.6 g/dL
  gamma-GTP: 1 IU/L
15 mg/kg, 9 h, dose level Low
  TERMINAL_BW: 204.6 g
  APTT: 21.4 s
  Bas: 0%
  Eos: 0.8%
  Fbg: 303.4 mg/dL
  Hb: 12.8 g/dL
  Ht: 38.4%
  Lym: 76.2%
  MCHC: 33.5%
  MCV: 62.1 fL
  Mono: 1.6%
  Neu: 21%
  PT: 15.5 s
  Plat: 127.1 x10_4/uL
  RBC: 619.8 x10_4/ul
  Ret: 7%
  WBC: 67.3 x10_2/uL
  KIDNEY_L: 1 g
  KIDNEY_R: 1 g
  KIDNEY_TOTAL: 2 g
  LIVER: 8.9 g
  ALP: 1312.6 IU/L
  ALT: 38 IU/L
  AST: 65.8 IU/L
  BUN: 10.2 mg/dL
  CRE: 0.1 mg/dL
  Ca: 11 mg/dL
  Cl: 105.6 meq/L
  DBIL: 0.004 mg/dL
  GLC: 172 mg/dL
  IP: 9.4 mg/dL
  K: 3.9 meq/L
  LDH: 186.2 IU/L
  Na: 139.6 meq/L
  PL: 124.4 mg/dL
  RALB: 3.1 g/dL
  TBIL: 0.014 mg/dL
  TC: 68.8 mg/dL
  TG: 49.2 mg/dL
  TP: 5.7 g/dL
  gamma-GTP: 1 IU/L
15 mg/kg, 24 h, dose level Low
  TERMINAL_BW: 216.9 g
  APTT: 20.4 s
  Bas: 0%
  Eos: 0.8%
  Fbg: 319.6 mg/dL
  Hb: 13.3 g/dL
  Ht: 39.1%
  Lym: 77.8%
  MCHC: 34.1%
  MCV: 63.5 fL
  Mono: 1.8%
  Neu: 18.6%
  PT: 15.8 s
  Plat: 130.2 x10_4/uL
  RBC: 616.8 x10_4/ul
  Ret: 6.2%
  WBC: 108.7 x10_2/uL
  KIDNEY_L: 1 g
  KIDNEY_R: 1 g
  KIDNEY_TOTAL: 1.9 g
  LIVER: 10 g
  ALP: 1593 IU/L
  ALT: 47 IU/L
  AST: 70.6 IU/L
  BUN: 17 mg/dL
  CRE: 0.1 mg/dL
  Ca: 10.8 mg/dL
  Cl: 106.8 meq/L
  DBIL: 0 mg/dL
  GLC: 185.6 mg/dL
  IP: 7.1 mg/dL
  K: 4.1 meq/L
  LDH: 212.8 IU/L
  Na: 142 meq/L
  PL: 158.8 mg/dL
  RALB: 3.2 g/dL
  TBIL: 0.012 mg/dL
  TC: 81.8 mg/dL
  TG: 122 mg/dL
  TP: 5.7 g/dL
  gamma-GTP: 1 IU/L
